“Also recorded” adds a separate entry of the source.
Columns and labels:
COX–2 protein [1] = conditions: cited from earlier work
IL–6 = test: kidney IL–6 mRNA (qPCR) in LPS induced sepsis in mice; format: in vivo, C57BL/6N mice; conditions: compound i. p. 100 mg/kg bw 2 h before LPS, 24 h after LPS
Procedure: (§1) Samples were stored at -80°C till further analysis. […] Plasma was generated by centrifugation at 4000 g at 4°C and stored at -80°C till further analysis.
(§2) Tissue sections were stored in RNA-later immediately after organ retrieval. Total RNA was extracted using the RNeasy mini kit system (Qiagen, Hilden, Germany) and transcribed using Superscript II Reverse transcriptase (Invitrogen). Quantitative (q) PCR was performed on […] (Roche Diagnostics, Penzberg, Germany) using FastStart Sybr-Green chemistry. Gene-specific primers for IL–6 (Quantitec QT00098875, Qiagen) and MCP–1 (Quantitec QT00167832, Qiagen) were used for the gene of interest and HPRT served as house keeping gene for normalization (Quantitec QT00166768, Qigaen). Quantification was carried out using qgene software.

MCP–1 = test: kidney MCP–1 mRNA (qPCR) in LPS induced sepsis in mice; format: in vivo, C57BL/6N mice; conditions: compound i. p. 100 mg/kg bw 2 h before LPS, 24 h after LPS, vs. LPS group
Procedure: as §1, §2

[2] = i.p. 50 mg/kg bw, LPS 37.5 mg/kg bw, 28–42 h post LPS administration; cited from earlier work
COX–2 [3] = biological target: T1, COX–2 (Homo sapiens, UniProt P35354); test: PGE2 formation in HCA–7 cells (24 h, LC-MS); format: cell-based; conditions: for changes of PGE2 formation in HCA–7 cells: non-cytotoxic concentrations, 24 h
T1 sequence (P35354 18-604): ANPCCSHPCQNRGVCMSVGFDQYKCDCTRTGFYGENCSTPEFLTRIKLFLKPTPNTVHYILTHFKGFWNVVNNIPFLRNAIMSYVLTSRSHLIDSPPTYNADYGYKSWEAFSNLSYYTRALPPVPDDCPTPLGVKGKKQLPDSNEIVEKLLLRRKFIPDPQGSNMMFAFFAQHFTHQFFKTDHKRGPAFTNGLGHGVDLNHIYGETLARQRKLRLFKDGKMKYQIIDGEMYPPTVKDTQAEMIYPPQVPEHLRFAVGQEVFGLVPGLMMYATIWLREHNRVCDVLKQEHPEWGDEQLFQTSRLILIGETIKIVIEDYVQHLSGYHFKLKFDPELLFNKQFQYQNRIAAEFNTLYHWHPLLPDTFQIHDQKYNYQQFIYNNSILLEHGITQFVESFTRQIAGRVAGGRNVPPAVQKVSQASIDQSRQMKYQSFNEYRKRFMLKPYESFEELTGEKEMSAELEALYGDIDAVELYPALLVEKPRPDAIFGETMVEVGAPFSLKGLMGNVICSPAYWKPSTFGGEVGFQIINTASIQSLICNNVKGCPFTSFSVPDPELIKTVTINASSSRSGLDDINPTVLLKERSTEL
Procedure: (§3) The in vitro assays were performed as described [6, 16, 18] and COX metabolites were quantified by LC-MS [18].
(§4) HCA–7 cells were incubated with sub-cytotoxic concentrations of the polyphenols dissolved in Tris buffered DMEM medium. Cytotoxicity of the polyphenols was evaluated by the lactate dehydrogenase leakage test (Cyto-Tox-ONE, Promega Mannheim, Germany). After 24 h the supernatant was collected for LC-MS analysis and the cells were harvested to analyze the COX–2 expression by Western Blotting.
After 24 h, the supernatant was sampled for LC-MS and cells were collected for the COX–2 expression analysis by Western Blotting.
(§5) GraphPad Prism 5.0 (GraphPad Software, San Diego, USA) was used for data analysis, the fitting of dose response curves and calculation of the IC50 values. Statistical differences were determined by Dunnetts test (LPS vs. other groups).

[4] = single soy meal containing 3.6 μmol total genistein/kg bw; cited from earlier work
COX–2 protein [5] = test: COX–2 expression in HCA–7 cells (Western Blot); format: cell-based, human; conditions: 24 h, vs. control
Procedure: as §4

COX–2 [6] = biological target: T1, COX–2; test: PGE2 formation in LPS stimulated primary human monocytes (24 h, LC-MS); format: cell-based
Procedure: as §3
(§6) Primary human monocytes were freshly isolated from human blood. Blood was collected from healthy human subjects after written informed consent was obtained. […] After 24 h, the supernatant was sampled for LC-MS and cells were collected for the COX–2 expression analysis by Western Blotting.
as §5

COX–2 [7] = biological target: T1, COX–2; test: cell-free COX–2 enzyme assay (PGE2 formation, LC-MS); format: biochemical
Procedure: as §3, §6, §5

COX–2 protein [8] = test: COX–2 expression in LPS stimulated primary human monocytes (Western Blot); conditions: 24 h, vs. control
Procedure: as §6

Row | Compound | COX–2 (protein) levels, RAW 264.7 cells (COX–2 protein [1]) | kidney IL–6 mRNA expression (IL–6; vs. LPS group) | kidney MCP–1 mRNA levels (MCP–1) | mortality [2] | inhibition at 100 µM (COX–2 [3]; HCA-7, 100 μM, read-out: inhibition, HCA-7 cell line) [%] | changes of PGE2 formation in HCA–7 cells (COX–2 [3]) | maximal plasma concentrations (free and conjugated form) [4] [µM] | COX-2 Expression, HCA-7 cell line (COX–2 protein [5]) | COX-2 Expression, HCA-7 cell line (COX–2 protein [5]; listed as genistein) | IC50 (COX–2 [6]; IC50 (95% CI), primary monocytes, LPS stimulated, calculated based on PGE2, n = 3, 24 h) [µM] | effect on COX–2 dependent PGE2 formation, cell-free enzyme assay (COX–2 [7]) | IC50 (95% CI), COX–2 enzyme assay (COX–2 [7]; calculated based on PGE2, n = 3) | IC50 (95% CI), HCA-7 cell line (COX–2 [3]; calculated based on PGE2, n = 3, 24 h) | COX-2 Expression, primary monocytes (COX–2 protein [8]) | further increase of kidney IL–6 mRNA expression in comparison to LPS group (IL–6) [fold] | inhibition, primary monocytes (COX–2 [6]; up to 1 μM) | IC50 (COX–2 [7]; calculated based on PGE2, n = 3, read-out: IC50 (95% CI), COX–2 enzyme assay) [µM]
1 | O=c1cc(-c2ccc(O)cc2)oc2cc(O)cc(O)c12 [Apigenin, apigenin] | reduced COX–2 levels | did not see an effect | did not see an effect | reduced mortality | – | – | – | – | – | – | – | – | – | – | – | – | –
2 | O=c1c(-c2ccc(O)cc2)coc2cc(O)cc(O)c12 [Genistein, genistein] | reduced | – | – | – | 54 | affected | 4 | 100 μM:COX–2 ↓ | decreased COX–2 expression | 7.4 | no effect | no effect (up to 30 μM) | – | – | – | – | –
3 | Oc1ccc(/C=C/c2cc(O)cc3c2[C@@H](c2cc(O)cc(O)c2)[C@H](c2ccc(O)cc2)O3)cc1 [ε-Viniferin, ε-viniferin] | – | – | – | – | – | no or only slight | – | no effect (up to 1 μM) | – | – | dose-dependently decreased; also recorded: inhibited | – | no effect (up to 1 μM) | no effect (up to 1 μM) | 28 | inhibition < 50% (up to 1 μM) | 11

Source: article PMC4594923, “Food Polyphenols Fail to Cause a Biologically Relevant Reduction of COX-2 Activity” (PLoS ONE, 2015)
